# Experimental data taken from article PMC9146161, “Novel Thienyl-Based Tyrosine Kinase Inhibitors for the Treatment of Hepatocellular Carcinoma” (Journal of Personalized Medicine, 2022).
# Target: T1, VEGFR-2 (Homo sapiens, UniProt P35968)
# T1 construct: gene KDR
# Assay: cell-free enzymatic kinase assay (Eurofins KinaseProfiler), dose-response […]
# Assay type: biochemical
# T1 sequence (P35968 20-1356): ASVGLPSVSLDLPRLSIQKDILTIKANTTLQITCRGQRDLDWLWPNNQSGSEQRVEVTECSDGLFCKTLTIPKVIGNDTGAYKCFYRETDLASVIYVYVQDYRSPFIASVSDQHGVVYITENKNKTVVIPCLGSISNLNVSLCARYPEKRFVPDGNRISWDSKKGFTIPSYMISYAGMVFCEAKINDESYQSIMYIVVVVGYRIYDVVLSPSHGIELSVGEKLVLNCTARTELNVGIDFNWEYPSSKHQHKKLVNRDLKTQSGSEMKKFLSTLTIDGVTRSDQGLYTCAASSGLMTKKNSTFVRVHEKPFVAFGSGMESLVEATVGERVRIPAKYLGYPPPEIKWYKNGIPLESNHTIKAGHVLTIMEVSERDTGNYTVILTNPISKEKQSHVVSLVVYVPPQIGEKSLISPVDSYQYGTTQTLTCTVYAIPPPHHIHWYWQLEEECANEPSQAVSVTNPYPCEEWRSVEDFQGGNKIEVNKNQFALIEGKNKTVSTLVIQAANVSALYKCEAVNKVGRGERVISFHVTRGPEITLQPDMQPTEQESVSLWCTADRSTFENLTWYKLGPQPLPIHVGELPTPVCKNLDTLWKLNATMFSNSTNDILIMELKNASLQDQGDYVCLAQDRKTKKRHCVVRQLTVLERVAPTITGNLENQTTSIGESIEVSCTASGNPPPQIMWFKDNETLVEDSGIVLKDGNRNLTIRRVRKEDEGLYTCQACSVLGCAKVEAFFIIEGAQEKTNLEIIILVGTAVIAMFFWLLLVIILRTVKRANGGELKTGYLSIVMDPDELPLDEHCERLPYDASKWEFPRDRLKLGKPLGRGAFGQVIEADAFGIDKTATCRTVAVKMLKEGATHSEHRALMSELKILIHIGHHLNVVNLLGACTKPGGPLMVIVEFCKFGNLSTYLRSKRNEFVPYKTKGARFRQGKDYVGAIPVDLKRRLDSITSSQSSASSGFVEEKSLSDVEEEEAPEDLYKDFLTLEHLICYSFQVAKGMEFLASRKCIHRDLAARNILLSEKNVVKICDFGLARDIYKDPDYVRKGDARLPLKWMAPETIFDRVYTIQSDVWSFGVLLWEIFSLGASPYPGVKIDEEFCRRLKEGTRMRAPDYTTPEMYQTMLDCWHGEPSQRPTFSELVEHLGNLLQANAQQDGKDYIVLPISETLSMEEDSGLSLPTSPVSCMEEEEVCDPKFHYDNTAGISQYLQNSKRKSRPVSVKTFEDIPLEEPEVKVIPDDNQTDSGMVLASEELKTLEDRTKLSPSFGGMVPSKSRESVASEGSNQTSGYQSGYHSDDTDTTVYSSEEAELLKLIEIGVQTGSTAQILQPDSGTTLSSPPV
smiles,measurement,value
COc1ccc(/C=C(\C#N)c2cccs2)cc1O [Thio-Iva],IC50,3.31 µM
